Where “and” joins values, the source holds several entries; their conditions need not be identical. Equal entries are not always repeated. Toxic doses and inconclusive results are not listed. Rule as the data show it: active = T/C of 150% or more; inactive = T/C below 125%.
Tested on: L1210 leukemia ip in BDF1 mice, survival T/C
Assay: NCI In Vivo Anticancer Drug Screen. Data for tumor model L1210 Leukemia (intraperitoneal) in B6D2F1 (BDF1) mice
Conditions: endpoint: mean survival time, higher = longer survival
Summary of the method: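 Antitumor effect is assessed in tumor-bearing animals. Survival in the compound arm is compared with a vehicle-dosed control arm and expressed as their quotient.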

Measured: T/C

Nc1ccc(O)cc1
inactive: dose: 12.5 mg/kg/injection, schedule: Q04DX003 (ip), vehicle: saline 92 % of control | dose: 25.0 mg/kg/injection, schedule: Q04DX003 (ip), vehicle: saline 95 % of control | dose: 35.0 mg/kg/injection, schedule: Q01DX Z (ip), vehicle: acid diluted with saline 92 % of control | dose: 35.0 mg/kg/injection, schedule: Q01DX Z (ip), vehicle: other 97 % of control | dose: 40.0 mg/kg/injection, schedule: Q01DX Z (ip), vehicle: methylcellulose (MC) 113 % of control | dose: 53.0 mg/kg/injection, schedule: Q01DX010 (sc), vehicle: saline 94 % of control | dose: 53.0 mg/kg/injection, schedule: Q01DX Z (ip), vehicle: acid diluted with saline 104 % of control | dose: 53.0 mg/kg/injection, schedule: Q01DX Z (ip), vehicle: other 103 % of control | dose: 53.0 mg/kg/injection, schedule: Q01DX Z (ip), vehicle: saline 98 % of control | dose: 80.0 mg/kg/injection, schedule: Q01DX Z (ip), vehicle: acid diluted with saline 108 % of control | dose: 80.0 mg/kg/injection, schedule: Q01DX Z (ip), vehicle: other 101 % of control | dose: 80.0 mg/kg/injection, schedule: Q01DX Z (ip), vehicle: saline 114 % of control | dose: 120.0 mg/kg/injection, schedule: Q01DX010 (sc), vehicle: saline 98 % of control | dose: 120.0 mg/kg/injection, schedule: Q01DX Z (ip), vehicle: acid diluted with saline 115 % of control | dose: 120.0 mg/kg/injection, schedule: Q01DX Z (ip), vehicle: other 114 % of control | dose: 120.0 mg/kg/injection, schedule: Q01DX Z (ip), vehicle: saline 112 % of control | dose: 160.0 mg/kg/injection, schedule: Q01DX Z (oral), vehicle: methylcellulose (MC) 113 % of control | dose: 212.0 mg/kg/injection, schedule: Q01DX013 (oral), vehicle: saline 109 % of control | dose: 320.0 mg/kg/injection, schedule: Q01DX Z (ip), vehicle: methylcellulose (MC) 107 % of control | dose: 320.0 mg/kg/injection, schedule: Q01DX Z (oral), vehicle: methylcellulose (MC) 108 % of control

CCC1=C(CC2NCCc3cc(OC)c(OC)cc32)CC2c3ccccc3CCN2C1 (stereo unspecified)
inactive: dose: 4.0 mg/kg/injection, schedule: Q04DX003 (ip), vehicle: water 105 % of control and 106 % of control | dose: 8.0 mg/kg/injection, schedule: Q04DX003 (ip), vehicle: water 104 % of control and 108 % of control | dose: 16.0 mg/kg/injection, schedule: Q04DX003 (ip), vehicle: water 112 % of control and 100 % of control | dose: 32.0 mg/kg/injection, schedule: Q04DX003 (ip), vehicle: water 105 % of control and 98 % of control | dose: 64.0 mg/kg/injection, schedule: Q04DX003 (ip), vehicle: water 100 % of control | dose: 75.0 mg/kg/injection, schedule: Q01DX001 (ip), vehicle: saline 100 % of control and 97 % of control | dose: 150.0 mg/kg/injection, schedule: Q01DX001 (ip), vehicle: saline 101 % of control and 103 % of control

O=C(Nc1nccs1)Nc1ccccc1Cl
inactive: dose: 100.0 mg/kg/injection, schedule: Q01DX009 (ip), vehicle: Klucel (hydroxypropylcellulose) (HPC) 96 % of control | dose: 100.0 mg/kg/injection, schedule: Q04DX002 (ip), vehicle: Klucel (hydroxypropylcellulose) (HPC) 91 % of control | dose: 200.0 mg/kg/injection, schedule: Q01DX009 (ip), vehicle: Klucel (hydroxypropylcellulose) (HPC) 91 % of control | dose: 200.0 mg/kg/injection, schedule: Q04DX002 (ip), vehicle: Klucel (hydroxypropylcellulose) (HPC) 98 % of control | dose: 400.0 mg/kg/injection, schedule: Q01DX009 (ip), vehicle: Klucel (hydroxypropylcellulose) (HPC) 96 % of control | dose: 400.0 mg/kg/injection, schedule: Q04DX002 (ip), vehicle: Klucel (hydroxypropylcellulose) (HPC) 107 % of control

NC(=O)N1CC(c2ccccc2)CCc2ccccc21 (stereo unspecified)
inactive: dose: 100.0 mg/kg/injection, schedule: Q01DX001 (ip), vehicle: saline 98 % of control | dose: 200.0 mg/kg/injection, schedule: Q01DX001 (ip), vehicle: saline 108 % of control | dose: 400.0 mg/kg/injection, schedule: Q01DX001 (ip), vehicle: saline 102 % of control

Cc1cc(=O)[nH]c2c1CCCCC2
inactive: dose: 100.0 mg/kg/injection, schedule: Q01DX001 (ip), vehicle: Klucel (hydroxypropylcellulose) (HPC) 98 % of control | dose: 200.0 mg/kg/injection, schedule: Q01DX001 (ip), vehicle: Klucel (hydroxypropylcellulose) (HPC) 96 % of control | dose: 400.0 mg/kg/injection, schedule: Q01DX001 (ip), vehicle: Klucel (hydroxypropylcellulose) (HPC) 96 % of control

c1ccc(CC(CNCC2C(c3ccccc3)C2c2ccccc2)c2ccccc2)cc1 (stereo unspecified)
inactive: dose: 12.5 mg/kg/injection, schedule: Q04DX002 (ip), vehicle: saline with Tween-80 96 % of control | dose: 25.0 mg/kg/injection, schedule: Q04DX002 (ip), vehicle: saline with Tween-80 93 % of control | dose: 50.0 mg/kg/injection, schedule: Q04DX002 (ip), vehicle: saline with Tween-80 90 % of control

COc1cc2c(c(OC)c1OC)-c1ccc(OC)c(=O)cc1[C@@H](NC(=O)c1ccccc1)CC2
inactive: dose: 0.13 mg/kg/injection, schedule: Q01DX Z (ip), vehicle: methylcellulose (MC) 87 % of control | dose: 0.2 mg/kg/injection, schedule: Q01DX Z (ip), vehicle: methylcellulose (MC) 120 % of control | dose: 0.29 mg/kg/injection, schedule: Q01DX Z (ip), vehicle: methylcellulose (MC) 122 % of control | dose: 0.44 mg/kg/injection, schedule: Q01DX Z (ip), vehicle: methylcellulose (MC) 95 % of control | dose: 0.75 mg/kg/injection, schedule: Q01DX Z (ip), vehicle: methylcellulose (MC) 101 % of control | dose: 0.8 mg/kg/injection, schedule: Q01DX Z (ip), vehicle: methylcellulose (MC) 103 % of control | dose: 1.2 mg/kg/injection, schedule: Q01DX Z (ip), vehicle: methylcellulose (MC) 106 % of control | dose: 1.6 mg/kg/injection, schedule: Q01DX015 (ip), vehicle: carboxymethylcellulose (CMC) 108 % of control | dose: 1.8 mg/kg/injection, schedule: Q01DX Z (ip), vehicle: methylcellulose (MC) 103 % of control | dose: 2.5 mg/kg/injection, schedule: Q01DX015 (ip), vehicle: carboxymethylcellulose (CMC) 108 % of control | dose: 2.7 mg/kg/injection, schedule: Q01DX Z (ip), vehicle: methylcellulose (MC) 105 % of control | dose: 3.7 mg/kg/injection, schedule: Q01DX015 (ip), vehicle: carboxymethylcellulose (CMC) 123 % of control | dose: 4.0 mg/kg/injection, schedule: Q01DX Z (ip), vehicle: methylcellulose (MC) 114 % of control | dose: 5.0 mg/kg/injection, schedule: Q01DX001 (ip), vehicle: carboxymethylcellulose (CMC) 104 % of control | dose: 5.6 mg/kg/injection, schedule: Q01DX015 (ip), vehicle: carboxymethylcellulose (CMC) 108 % of control | dose: 8.4 mg/kg/injection, schedule: Q01DX015 (ip), vehicle: carboxymethylcellulose (CMC) 86 % of control | dose: 10.0 mg/kg/injection, schedule: Q01DX001 (ip), vehicle: carboxymethylcellulose (CMC) 120 % of control | dose: 20.0 mg/kg/injection, schedule: Q01DX001 (ip), vehicle: carboxymethylcellulose (CMC) 118 % of control | dose: 27.0 mg/kg/injection, schedule: Q01DX001 (ip), vehicle: carboxymethylcellulose (CMC) 120 % of control

Source: PubChem BioAssay AID248 (DTP/NCI, 2004)
